Reference: US12115155B2, “Solid dosage form of a nicotine concentration” (Fertin Pharma A/S, priority 2017, dated 2024)

Details: nicotine concentration increased from 100 microgram/mL to 14,000 microgram/mL

CN1CCCC1c1cccnc1 (stereo not shown) [nicotine]
change of permeability of nicotine across the buccal mucosa: decrease of about a factor of two
